Test results: US11453632B2, “1-phenyl-2-phenylethane derivative” (KAO CORPORATION, priority 2018, dated 2022)

Test system: back skin browning induced by testosterone
Assay: Effect on sebum secretion (back skin browning) in testosterone-treated rat
Assay type: in vivo
Settings: testosterone 3 mg/kg/day plus test substance, subcutaneous osmotic pump, 28 days
Description: 12-week-old male Slc:SD (SPF) rats were obtained from Japan SLC, Inc. An acclimatization period was established for 1 week after receipt. During the acclimatization period, the rats were allowed to freely ingest a powder diet (AIN-93G). 2) Implantation of Osmotic Pump After body weight measurement, back hair was shaved under isoflurane (AbbVie GK) inhalation anesthesia, and carprofen was subcutaneously administered to the rats. Then, an incision of approximately 1 cm at the maximum was made on the cranial side in the back. An osmotic minipump Alzet (Muromachi Kikai Co., Ltd.) containing testosterone and compound 17-F or finasteride (Sigma-Aldrich Co. LLC) was subcutaneously implanted. From this osmotic pump, testosterone (3 mg/kg body weight/day) (Sigma-Aldrich Co. LLC) and compound 17-F (0.1 mg/body weight/day or 1 mg/kg body weight/day) or finasteride (0.1 mg/kg body weight/day or 1 mg/kg body weight/day) were continuously administered for 28 days. Since the implantation of the osmotic pump, the rats were allowed to freely ingest customized feed AIN-93G (Oriental Yeast Co., Ltd.) free from components derived from soybeans. 3) Photographing of Skin and Harvesting of Prostate After a lapse of 28 days, body weights were measured, and subsequently, the rats were euthanized by blood letting under isoflurane anesthesia. […] Wet weights were measured. […]

Oc1ccc(CC(C=C(F)F)c2ccc(O)cc2F)c(F)c1 (stereo not shown) [Compound 17-F, 4,4′-(4,4-difluorobut-3-ene-1,2-diyl)bis(3-fluorophenol)]
skin browning induced by testosterone (sebum secretion, FIG. 3): markedly inhibited
